# Results as given in ChEMBL document CHEMBL3885861, “Open TG-GATES”.
# Species: Rattus norvegicus
# Test: Open TG-GATES - Regimen: Single
# Type: toxicity, organism-based, Sprague-Dawley
# Set-up: regimen Single, gender Male, age 6 weeks
# Conditions: in vivo, po, route gavage; for TP / gamma-GTP / ALP / AST / CRE / DBIL / IP / K / LDH / Na / RALB / TBIL / TC / TG / ALT: tissue Plasma; for Bas / Eos / Fbg / Hb / Lym / MCH / MCHC / MCV / Mono / Neu / PT / RBC / Ret / APTT / WBC / Ht: tissue Blood; for KIDNEY_L / KIDNEY_R / KIDNEY_TOTAL: tissue Kidney
# [1] = 30 mg/kg, 3 h, dose level Middle
# [2] = 30 mg/kg, 6 h, dose level Middle
# [3] = 30 mg/kg, 9 h, dose level Middle
# [4] = 30 mg/kg, 24 h, dose level Middle
# [5] = 100 mg/kg, 3 h, dose level High
# [6] = 100 mg/kg, 6 h, dose level High
# [7] = 100 mg/kg, 9 h, dose level High
# [8] = 100 mg/kg, 24 h, dose level High
compound,measurement,setting,value
Cc1cnc(NC(=O)C2=C(O)c3ccccc3S(=O)(=O)N2C)s1 [MELOXICAM],TP,"10 mg/kg, 24 h, dose level Low",5.4 g/dL
same,gamma-GTP,"10 mg/kg, 24 h, dose level Low",1 IU/L
same,TERMINAL_BW,[1],226 g
same,Bas,[1],1%
same,Eos,[1],0.8%
same,Fbg,[1],212 mg/dL
same,Hb,[1],13.3 g/dL
same,Lym,[1],79.6%
same,MCH,[1],21 pg
same,MCHC,[1],33.5%
same,MCV,[1],62.7 fL
same,Mono,[1],2.4%
same,Neu,[1],16.4%
same,PT,[1],12 s
same,RBC,[1],636.4 x10_4/ul
same,Ret,[1],7%
same,KIDNEY_L,[1],1 g
same,KIDNEY_R,[1],1 g
same,KIDNEY_TOTAL,[1],2.1 g
same,ALP,[1],811 IU/L
same,AST,[1],65.6 IU/L
same,CRE,[1],0.4 mg/dL
same,DBIL,[1],0.07 mg/dL
same,IP,[1],8.4 mg/dL
same,K,[1],4.1 meq/L
same,LDH,[1],177.8 IU/L
same,Na,[1],140.6 meq/L
same,RALB,[1],3.2 g/dL
same,TBIL,[1],0.1 mg/dL
same,TC,[1],66 mg/dL
same,TG,[1],66 mg/dL
same,TP,[1],5.3 g/dL
same,gamma-GTP,[1],0.8 IU/L
same,TERMINAL_BW,[2],222.4 g
same,Bas,[2],0.6%
same,Eos,[2],0.8%
same,Fbg,[2],221.6 mg/dL
same,Lym,[2],73.6%
same,MCH,[2],21.8 pg
same,MCHC,[2],33.9%
same,MCV,[2],64.3 fL
same,Mono,[2],3.4%
same,Neu,[2],21.4%
same,RBC,[2],632.8 x10_4/ul
same,Ret,[2],7.2%
same,KIDNEY_L,[2],1 g
same,KIDNEY_R,[2],0.9 g
same,KIDNEY_TOTAL,[2],1.9 g
same,ALP,[2],775.2 IU/L
same,ALT,[2],36.2 IU/L
same,AST,[2],68.6 IU/L
same,CRE,[2],0.4 mg/dL
same,DBIL,[2],0.062 mg/dL
same,IP,[2],9.3 mg/dL
same,K,[2],3.8 meq/L
same,LDH,[2],163.2 IU/L
same,Na,[2],141.2 meq/L
same,RALB,[2],3.4 g/dL
same,TBIL,[2],0.1 mg/dL
same,TC,[2],70.4 mg/dL
same,TG,[2],61.6 mg/dL
same,TP,[2],5.5 g/dL
same,gamma-GTP,[2],1 IU/L
same,TERMINAL_BW,[3],222 g
same,APTT,[3],17.1 s
same,Bas,[3],0.4%
same,Eos,[3],0.8%
same,Fbg,[3],235 mg/dL
same,Hb,[3],13.3 g/dL
same,Lym,[3],72%
same,MCH,[3],21.8 pg
same,MCHC,[3],34.2%
same,MCV,[3],63.8 fL
same,Mono,[3],3.8%
same,Neu,[3],22.2%
same,PT,[3],12.5 s
same,RBC,[3],612.6 x10_4/ul
same,Ret,[3],7%
same,WBC,[3],110.9 x10_2/uL
same,KIDNEY_L,[3],1 g
same,KIDNEY_R,[3],1 g
same,KIDNEY_TOTAL,[3],2 g
same,ALP,[3],861.8 IU/L
same,ALT,[3],34 IU/L
same,AST,[3],62.8 IU/L
same,CRE,[3],0.4 mg/dL
same,DBIL,[3],0.06 mg/dL
same,IP,[3],9.6 mg/dL
same,K,[3],4.1 meq/L
same,LDH,[3],170.2 IU/L
same,Na,[3],141.8 meq/L
same,RALB,[3],3.2 g/dL
same,TBIL,[3],0.1 mg/dL
same,TC,[3],64 mg/dL
same,TG,[3],44.4 mg/dL
same,TP,[3],5.3 g/dL
same,gamma-GTP,[3],1 IU/L
same,TERMINAL_BW,[4],240.1 g
same,Bas,[4],0.6%
same,Eos,[4],0.8%
same,Fbg,[4],243.4 mg/dL
same,Lym,[4],68%
same,MCH,[4],21.8 pg
same,MCHC,[4],33.7%
same,MCV,[4],64.6 fL
same,Mono,[4],3.8%
same,Neu,[4],26.4%
same,PT,[4],11.6 s
same,RBC,[4],609 x10_4/ul
same,Ret,[4],6.8%
same,WBC,[4],132.5 x10_2/uL
same,KIDNEY_L,[4],1.1 g
same,KIDNEY_R,[4],1.1 g
same,KIDNEY_TOTAL,[4],2.1 g
same,ALT,[4],38.4 IU/L
same,AST,[4],69.6 IU/L
same,CRE,[4],0.4 mg/dL
same,DBIL,[4],0.098 mg/dL
same,IP,[4],7.8 mg/dL
same,K,[4],3.9 meq/L
same,LDH,[4],207 IU/L
same,Na,[4],142.8 meq/L
same,RALB,[4],3.3 g/dL
same,TBIL,[4],0.2 mg/dL
same,TC,[4],72.2 mg/dL
same,TG,[4],108 mg/dL
same,TP,[4],5.4 g/dL
same,gamma-GTP,[4],1 IU/L
same,TERMINAL_BW,[5],226.7 g
same,Bas,[5],1%
same,Eos,[5],1.4%
same,Fbg,[5],222.4 mg/dL
same,Lym,[5],75.6%
same,MCH,[5],21.7 pg
same,MCHC,[5],34%
same,MCV,[5],63.9 fL
same,Mono,[5],3.6%
same,Neu,[5],18.6%
same,PT,[5],11.8 s
same,RBC,[5],624.4 x10_4/ul
same,Ret,[5],7.1%
same,WBC,[5],99 x10_2/uL
same,KIDNEY_L,[5],1 g
same,KIDNEY_R,[5],1 g
same,KIDNEY_TOTAL,[5],2 g
same,ALP,[5],883 IU/L
same,ALT,[5],37.2 IU/L
same,AST,[5],68.2 IU/L
same,CRE,[5],0.4 mg/dL
same,DBIL,[5],0.078 mg/dL
same,IP,[5],8.9 mg/dL
same,K,[5],4 meq/L
same,LDH,[5],187.4 IU/L
same,Na,[5],140.6 meq/L
same,RALB,[5],3.4 g/dL
same,TBIL,[5],0.1 mg/dL
same,TC,[5],74.2 mg/dL
same,TG,[5],74.4 mg/dL
same,TP,[5],5.4 g/dL
same,gamma-GTP,[5],0.8 IU/L
same,TERMINAL_BW,[6],223.6 g
same,Bas,[6],0.4%
same,Eos,[6],1%
same,Fbg,[6],211.6 mg/dL
same,Hb,[6],13.3 g/dL
same,Lym,[6],73.4%
same,MCH,[6],21.1 pg
same,MCHC,[6],34%
same,MCV,[6],61.9 fL
same,Mono,[6],3.2%
same,Neu,[6],22.4%
same,PT,[6],12.1 s
same,RBC,[6],631.4 x10_4/ul
same,Ret,[6],6.7%
same,WBC,[6],88.1 x10_2/uL
same,KIDNEY_L,[6],1 g
same,KIDNEY_R,[6],1 g
same,KIDNEY_TOTAL,[6],2 g
same,ALP,[6],723.4 IU/L
same,ALT,[6],37.4 IU/L
same,AST,[6],68 IU/L
same,CRE,[6],0.3 mg/dL
same,DBIL,[6],0.068 mg/dL
same,IP,[6],9.5 mg/dL
same,K,[6],4.1 meq/L
same,LDH,[6],160.4 IU/L
same,Na,[6],140.4 meq/L
same,RALB,[6],3.3 g/dL
same,TBIL,[6],0.1 mg/dL
same,TC,[6],67.6 mg/dL
same,TG,[6],43 mg/dL
same,TP,[6],5.3 g/dL
same,gamma-GTP,[6],1 IU/L
same,TERMINAL_BW,[7],223.1 g
same,APTT,[7],17.8 s
same,Bas,[7],0.4%
same,Eos,[7],1%
same,Fbg,[7],222.6 mg/dL
same,Hb,[7],13.3 g/dL
same,Ht,[7],38.4%
same,Lym,[7],65.6%
same,MCH,[7],21.9 pg
same,MCHC,[7],34.5%
same,MCV,[7],63.6 fL
same,Mono,[7],4%
same,Neu,[7],28.8%
same,RBC,[7],605 x10_4/ul
same,Ret,[7],7.1%
same,KIDNEY_L,[7],1 g
same,KIDNEY_R,[7],1 g
same,KIDNEY_TOTAL,[7],2 g
same,ALP,[7],759 IU/L
same,ALT,[7],27.4 IU/L
same,AST,[7],61 IU/L
same,CRE,[7],0.4 mg/dL
same,DBIL,[7],0.06 mg/dL
same,IP,[7],9.6 mg/dL
same,K,[7],4.3 meq/L
same,LDH,[7],166 IU/L
same,Na,[7],141.4 meq/L
same,RALB,[7],3.2 g/dL
same,TBIL,[7],0.1 mg/dL
same,TC,[7],62 mg/dL
same,TG,[7],23.2 mg/dL
same,TP,[7],5.3 g/dL
same,gamma-GTP,[7],1 IU/L
same,TERMINAL_BW,[8],227.5 g
same,Bas,[8],0.2%
same,Eos,[8],0.8%
same,Fbg,[8],300.8 mg/dL
same,Hb,[8],9.5 g/dL
same,Ht,[8],28.5%
same,Lym,[8],67.4%
same,MCH,[8],20.9 pg
same,MCHC,[8],33.2%
same,MCV,[8],62.8 fL
same,Mono,[8],2.8%
same,PT,[8],11.8 s
same,RBC,[8],453.8 x10_4/ul
same,Ret,[8],8.4%
same,KIDNEY_L,[8],1.1 g
same,KIDNEY_R,[8],1.1 g
same,KIDNEY_TOTAL,[8],2.1 g
same,ALP,[8],504.8 IU/L
same,ALT,[8],26.2 IU/L
same,AST,[8],51.8 IU/L
same,CRE,[8],0.4 mg/dL
same,DBIL,[8],0.056 mg/dL
same,IP,[8],9.8 mg/dL
same,K,[8],4.3 meq/L
same,LDH,[8],159.4 IU/L
same,Na,[8],141.2 meq/L
same,RALB,[8],2.2 g/dL
same,TBIL,[8],0.1 mg/dL
same,TC,[8],58.6 mg/dL
same,TG,[8],69.2 mg/dL
same,TP,[8],3.9 g/dL
same,gamma-GTP,[8],1 IU/L
